1 molecule from US20250311727A1, “SUBSTITUTED 2-AMINOAZINES AND SALTS THEREOF, AND USE THEREOF AS HERBICIDAL ACTIVE SUBSTANCES” (BAYER AKTIENGESELLSCHAFT, priority 2022, published 2025) can be followed below.

Common to all, as to format: in vivo
In assay [1] the test system is Setaria viridis. Kind of assay: Pre-emergence herbicide efficacy at 80 g/ha, SETVI. The gist of the method:
(§1)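 Seeds sown in pots and covered with soil; compounds formulated as WP or EC were sprayed onto the soil surface as aqueous suspension/emulsion with 0.5% additive at 600 l/ha water. Pots kept in greenhouse; after about 3 weeks efficacy scored visually as % versus untreated controls (100% = plants died, 0% = like control).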

For assay [2], the system named is Veronica persica. Briefly: Pre-emergence herbicide efficacy at 80 g/ha, VERPE. The gist of the method: as §1
Assay [3] relates to Abutilon theophrasti. Kind of assay: Pre-emergence herbicide efficacy at 80 g/ha, ABUTH. The settings on record: scored visually after about 3 weeks vs untreated controls, 100% = plants have died. The gist of the method: as §1
Assay [4] deals with Amaranthus retroflexus. Kind of assay: Pre-emergence herbicide efficacy at 80 g/ha, AMARE. The settings on record: scored visually after about 3 weeks vs untreated controls, 100% = plants have died. The gist of the method: as §1
Assay [5] concerns Viola tricolor. Briefly: Post-emergence herbicidal efficacy at 80 g/ha, VIOTR. The settings on record: rated visually after about 3 weeks vs untreated controls, 100% = plants have died. The gist of the method:
(§2)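 Weeds grown from seed in sandy loam under controlled greenhouse conditions were sprayed on green parts at the one-leaf stage, 2 to 3 weeks after sowing. WP or EC formulations were applied in water with 0.5% additive at 600 l/ha. Activity was scored visually about 3 weeks later against untreated controls (0% = like control, 100% = dead).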

The test system of the next assay is PHBPU. Kind of assay: Post-emergence herbicidal efficacy at 80 g/ha, PHBPU. Particulars: rated visually after about 3 weeks vs untreated controls, 100% = plants have died. As for the experimental part:
(§3) Seeds of monocotyledonous and dicotyledonous weeds and crop plants were placed in sandy loam in plastic or organic planting pots, covered with soil and cultivated in a greenhouse under controlled growth conditions. 2 to 3 weeks after sowing, the test plants were treated at the one-leaf stage. The compounds of the invention, formulated in the form of wettable powders (WP) or as emulsion concentrates (EC), were then sprayed onto the green parts of the plants as aqueous suspension or emulsion with addition of 0.5% additive at a water application rate of 600 l/ha (converted). After the test plants had been kept in the greenhouse under optimum growth conditions for about 3 weeks, the activity of the preparations was rated visually in comparison to untreated controls. For example, 100% activity=the plants have died, 0% activity=like control plants. Tables B1 to B11 below show the effects of selected compounds of the general formula (I) according to Table 1 on various harmful plants and an application rate corresponding to 80 g/ha, which were obtained by the experimental procedure mentioned above.

For assay [6], the system named is Veronica persica. Briefly: Post-emergence herbicidal efficacy at 80 g/ha, VERPE. The settings on record: rated visually after about 3 weeks vs untreated controls, 100% = plants have died. The gist of the method: as §2
The test system of assay [7] is Kochia scoparia. Briefly: Pre-emergence herbicide efficacy at 80 g/ha, KCHSC. Particulars: scored visually after about 3 weeks vs untreated controls, 100% = plants have died. The gist of the method: as §1
The subject of assay [8] is Abutilon theophrasti. Kind of assay: Post-emergence herbicidal efficacy at 80 g/ha, ABUTH. The settings on record: rated visually after about 3 weeks vs untreated controls, 100% = plants have died.
From the text: (§4) Unwanted plants/weeds: • ABUTH: Abutilon theophrasti • ALOMY: Alopecurus myosuroides • AMARE: Amaranthus retroflexus • DIGSA: Digitaria sanguinalis • ECHCG: Echinochloa crus-galli • KCHSC: Kochia scoparia • LOLRI: Lolium rigidum • MATIN: Matricaria inodora • POAAN: Poa annua • POLCO: Polygonum convolvulus • SETVI: Setaria viridis • STEME: Stellaria media • VERPE: Veronica persica • VIOTR: Viola tricolor A. Post-Emergence Herbicidal Efficacy at 320 g/ha
as §3, with “plants.” for “plants. Tables B1 to B11 below show the effects of selected compounds of the general formula (I) according to Table 1 on various harmful plants and an application rate corresponding to 80 g/ha, which were obtained by the experimental procedure mentioned above.”
(§5) Tables B1 to B11 below show the effects of selected compounds of the general formula (I) according to Table 1 on various harmful plants and an application rate corresponding to 80 g/ha, which were obtained by the experimental procedure mentioned above.

The test system of assay [9] is Viola tricolor. Kind of assay: Pre-emergence herbicide efficacy at 80 g/ha, VIOTR. The gist of the method: as §1
For the next assay, the system named is Lolium rigidum. Kind of assay: Pre-emergence herbicide efficacy at 80 g/ha, LOLRI. Particulars: scored visually after about 3 weeks vs untreated controls, 100% = plants have died.
From the text: as §4
Seeds of monocotyledonous and dicotyledonous weed plants and crop plants were placed in plastic or organic planting pots and covered with soil. The compounds of the invention, formulated in the form of wettable powders (WP) or as emulsion concentrates (EC), were then applied to the surface of the covering soil as aqueous suspension or emulsion with addition of 0.5% additive at a water application rate equivalent to 600 l/ha. After the treatment, the pots were placed in a greenhouse and kept under good growth conditions for the test plants. After about 3 weeks, the efficacy of the preparations was scored visually in comparison with untreated controls as percentages. For example, 100% activity=the plants have died, 0% activity=like control plants. […]

The subject of assay [10] is Digitaria sanguinalis. Kind of assay: Pre-emergence herbicide efficacy at 80 g/ha, DIGSA. Particulars: scored visually after about 3 weeks vs untreated controls, 100% = plants have died. The gist of the method: as §1
The test system of assay [11] is Amaranthus retroflexus. Kind of assay: Post-emergence herbicidal efficacy at 80 g/ha, AMARE. Particulars: rated visually after about 3 weeks vs untreated controls, 100% = plants have died. The gist of the method: as §2
Another assay concerns Matricaria inodora. Kind of assay: Pre-emergence herbicide efficacy at 80 g/ha, MATIN. The settings on record: scored visually after about 3 weeks vs untreated controls, 100% = plants have died.
From the text: as §4
(§6) Seeds of monocotyledonous and dicotyledonous weed plants and crop plants were placed in plastic or organic planting pots and covered with soil. The compounds of the invention, formulated in the form of wettable powders (WP) or as emulsion concentrates (EC), were then applied to the surface of the covering soil as aqueous suspension or emulsion with addition of 0.5% additive at a water application rate equivalent to 600 l/ha. After the treatment, the pots were placed in a greenhouse and kept under good growth conditions for the test plants. After about 3 weeks, the efficacy of the preparations was scored visually in comparison with untreated controls as percentages. For example, 100% activity=the plants have died, 0% activity=like control plants.
(§7) Tables D1 to D12 below show the effects of selected compounds of the general formula (I) according to Table 1 on various harmful plants and an application rate corresponding to 80 g/ha, which were obtained by the experimental procedure mentioned above.

Assay [12] has as its system Digitaria sanguinalis. Briefly: Post-emergence herbicidal efficacy at 80 g/ha, DIGSA. Particulars: rated visually after about 3 weeks vs untreated controls, 100% = plants have died.
From the text: as §4
as §3, with “plants.” for “plants. Tables B1 to B11 below show the effects of selected compounds of the general formula (I) according to Table 1 on various harmful plants and an application rate corresponding to 80 g/ha, which were obtained by the experimental procedure mentioned above.”
as §5

Assay [13] concerns Setaria viridis. Kind of assay: Post-emergence herbicidal efficacy at 80 g/ha, SETVI. Particulars: rated visually after about 3 weeks vs untreated controls, 100% = plants have died.
From the text: as §4
as §3, with “plants.” for “plants. Tables B1 to B11 below show the effects of selected compounds of the general formula (I) according to Table 1 on various harmful plants and an application rate corresponding to 80 g/ha, which were obtained by the experimental procedure mentioned above.”
as §5

Assay [14] has as its system Polygonum convolvulus. Briefly: Post-emergence herbicidal efficacy at 80 g/ha, POLCO. Particulars: rated visually after about 3 weeks vs untreated controls, 100% = plants have died.
From the text: as §4
as §3, with “Tables B1 to B11 below show the effects of selected compounds of the general formula (I) according to Table 1 on various harmful plants and an application rate corresponding to 80 g/ha, which were obtained by the experimental procedure mentioned above.” left out

A further assay concerns Alopecurus myosuroides. Kind of assay: Pre-emergence herbicide efficacy at 80 g/ha, ALOMY. The settings on record: scored visually after about 3 weeks vs untreated controls, 100% = plants have died.
From the text: as §4, §6, §7

Assay [15] has as its system Echinochloa crus-galli. Briefly: Post-emergence herbicidal efficacy at 80 g/ha, ECHCG. The settings on record: rated visually after about 3 weeks vs untreated controls, 100% = plants have died.
From the text: as §4
as §3, with “plants.” for “plants. Tables B1 to B11 below show the effects of selected compounds of the general formula (I) according to Table 1 on various harmful plants and an application rate corresponding to 80 g/ha, which were obtained by the experimental procedure mentioned above.”
as §5

Assay [16] deals with Echinochloa crus-galli. Briefly: Pre-emergence herbicide efficacy at 80 g/ha, ECHCG. The settings on record: scored visually after about 3 weeks vs untreated controls, 100% = plants have died. The gist of the method:
as §1

In assay [17] the test system is Kochia scoparia. Briefly: Post-emergence herbicidal efficacy at 80 g/ha, KCHSC. Particulars: rated visually after about 3 weeks vs untreated controls, 100% = plants have died. The gist of the method: as §2
For assay [18], the system named is Polygonum convolvulus. Briefly: Pre-emergence herbicide efficacy at 80 g/ha, POLCO. Particulars: scored visually after about 3 weeks vs untreated controls, 100% = plants have died. The gist of the method: as §1

Turning to `FC(F)c1cc(-c2c(Cl)cccc2Nc2ncc(Cl)cn2)on1` [Example 1-61], the “Pre-emergence efficacy against SETVI” value in the assay on Setaria viridis [1] is given as 100%. Besides, the “Pre-emergence efficacy against VERPE” value in the assay with Veronica persica [2] worked out at 90%. The “Pre-emergence efficacy at 80 g/ha against ABUTH in %” value with Abutilon theophrasti [3] was 90%. Moreover, in the assay with Amaranthus retroflexus [4], the “Pre-emergence efficacy at 80 g/ha against AMARE in %” value was 100%. Moreover, the “Post-emergence efficacy at 80 g/ha against VIOTR in %” value with Viola tricolor [5] is reported as 100%. Further, the “Post-emergence efficacy at 80 g/ha against PHBPU in %” value in the assay on PHBPU turned out to be 100%. Besides, the “Post-emergence efficacy at 80 g/ha against VERPE in %” value in the assay with Veronica persica [6] was 100%. The “Pre-emergence efficacy at 80 g/ha against KCHSC in %” value in the assay on Kochia scoparia [7] is 100%. For the same molecule, the “Post-emergence efficacy at 80 g/ha against ABUTH in %” value in the assay on Abutilon theophrasti [8] is 100%. The “Pre-emergence efficacy against VIOTR” value with Viola tricolor [9] is given as 100%. For the same molecule, the “Pre-emergence efficacy at 80 g/ha against LOLRI in %” value with Lolium rigidum amounted to 90%. Moreover, in the assay with Digitaria sanguinalis [10], the “Pre-emergence efficacy at 80 g/ha against DIGSA in %” value is 100%. In addition, the “Post-emergence efficacy at 80 g/ha against AMARE in %” value with Amaranthus retroflexus [11] amounted to 100%. The “Pre-emergence efficacy at 80 g/ha against MATIN in %” value with Matricaria inodora is recorded as 100%. The “Post-emergence efficacy at 80 g/ha against DIGSA in %” value in the assay on Digitaria sanguinalis [12] was 100%. Besides, the “Post-emergence efficacy at 80 g/ha against SETVI in %” value in the assay with Setaria viridis [13] is 100%. Also, in the assay on Polygonum convolvulus [14], the “Post-emergence efficacy at 80 g/ha against POLCO in %” value is recorded as 100%. Moreover, in the assay on Alopecurus myosuroides, the “Pre-emergence efficacy at 80 g/ha against ALOMY in %” value is reported as 90%. Further, the “Post-emergence efficacy at 80 g/ha against ECHCG in %” value in the assay with Echinochloa crus-galli [15] is 100%. Also, the “Pre-emergence efficacy at 80 g/ha against ECHCG in %” value in the assay with Echinochloa crus-galli [16] came out at 100%. The “Post-emergence efficacy at 80 g/ha against KCHSC in %” value with Kochia scoparia [17] amounted to 100%. Further, the “Pre-emergence efficacy at 80 g/ha against POLCO in %” value with Polygonum convolvulus [18] is listed as 80%.
